Activity calls are given as the source filed them.
Legend:
[1] = Vero E6 cell cytotoxicity, dose response, cytotoxicity control for non-replicating M. tuberculosis project, secondary assay (AID 492998); type: functional, VeroE6; conditions: Vero C1008
[2] = HepG2 cell cytotoxicity, dose response, cytotoxicity control for non-replicating M. tuberculosis project (AID 489018); type: functional; conditions: Mycobacterium tuberculosis
cells = type: functional
[3] = THP-1 cell cytotoxicity, dose response, cytotoxicity control for non-replicating M. tuberculosis project (AID 489025); type: functional
[4] = C. albicans growth with fluconazole, confirmation, fluorescence, retest (AID 2467); type: functional, cell-based
[5] = NIH-3T3 fibroblast cytotoxicity, dose response, cytotoxicity control, cell-based, fluorescence, Alamar Blue, secondary assay (AID 2327); type: functional;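 also: NIH-3T3 mouse fibroblasts cultured with fluconazole at 8 µg/mL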
[6] = biological target: G-protein coupled receptor 55 (Homo sapiens, UniProt Q9Y2T6); assay: SAR Analysis of Selective Antagonists of GPR55 using an Image-Based Assay - Set 4. [Related pubchem assays (depositor defined):AID2013, AID2026]; type: functional;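 also: antagonism of response to 5 µM lysophosphatidylinositol agonist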
Sequence of G-protein coupled receptor 55 (Q9Y2T6 whole entry): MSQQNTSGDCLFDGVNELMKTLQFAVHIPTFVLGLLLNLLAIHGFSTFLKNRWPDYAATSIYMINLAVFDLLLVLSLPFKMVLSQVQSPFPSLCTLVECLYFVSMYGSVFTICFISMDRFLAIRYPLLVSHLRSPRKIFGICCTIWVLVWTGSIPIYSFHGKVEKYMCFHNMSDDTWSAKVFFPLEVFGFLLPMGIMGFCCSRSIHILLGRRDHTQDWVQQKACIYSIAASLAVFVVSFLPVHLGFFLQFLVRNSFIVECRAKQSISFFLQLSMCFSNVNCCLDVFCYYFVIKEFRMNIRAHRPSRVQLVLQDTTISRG

[7] = biological target: T1, Probable nicotinate-nucleotide adenylyltransferase (Staphylococcus aureus (strain N315), UniProt P65502); type: functional, Staphylococcus aureus subsp. aureus N315;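 as to IC50 Mean: confirmatory dose-response retesting of NadD inhibitor hits first found in an ultra-high-throughput screen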
T1 sequence (P65502 whole entry): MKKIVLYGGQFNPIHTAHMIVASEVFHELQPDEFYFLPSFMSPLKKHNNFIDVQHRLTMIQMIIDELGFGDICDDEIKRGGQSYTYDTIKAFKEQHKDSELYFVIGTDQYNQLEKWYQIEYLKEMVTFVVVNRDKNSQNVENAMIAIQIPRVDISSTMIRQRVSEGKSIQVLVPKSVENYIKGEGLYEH

[8] = biological target: T1, Probable nicotinate-nucleotide adenylyltransferase; type: functional, Staphylococcus aureus subsp. aureus N315; conditions: read-out: IC50_Mean
Coagulation factor XII = biological target: T2, Coagulation factor XII (Homo sapiens, UniProt P00748); type: functional;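 also: activated factor XIIa alpha cleaving a fluorogenic AMC peptide substrate; inhibitor potency from loss of enzyme activity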
T2 sequence (P00748 whole entry): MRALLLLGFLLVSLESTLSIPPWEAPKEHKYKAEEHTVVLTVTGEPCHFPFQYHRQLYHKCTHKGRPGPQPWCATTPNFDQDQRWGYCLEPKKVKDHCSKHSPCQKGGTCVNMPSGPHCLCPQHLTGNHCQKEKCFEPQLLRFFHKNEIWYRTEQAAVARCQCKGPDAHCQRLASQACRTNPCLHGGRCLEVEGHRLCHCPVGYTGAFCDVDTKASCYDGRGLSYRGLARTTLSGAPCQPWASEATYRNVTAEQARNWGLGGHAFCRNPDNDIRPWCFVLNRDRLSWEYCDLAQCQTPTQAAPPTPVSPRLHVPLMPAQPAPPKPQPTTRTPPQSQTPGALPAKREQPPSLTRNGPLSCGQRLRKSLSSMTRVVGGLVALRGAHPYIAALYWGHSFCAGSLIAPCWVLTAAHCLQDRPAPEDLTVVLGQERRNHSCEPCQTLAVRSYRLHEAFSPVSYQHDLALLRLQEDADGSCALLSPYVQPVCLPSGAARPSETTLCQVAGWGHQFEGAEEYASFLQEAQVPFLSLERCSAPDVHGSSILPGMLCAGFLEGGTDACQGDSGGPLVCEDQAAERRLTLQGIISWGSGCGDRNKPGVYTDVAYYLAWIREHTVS

Streptokinase A = biological target: T3, Streptokinase A (Streptococcus pyogenes serotype M1, UniProt P10520); assay: S. pyogenes streptokinase expression inhibitors, potency, dose response, plasminogen activation absorbance, OD405 (AID 1914); type: functional, Streptococcus pyogenes M1 GAS;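 also: secreted streptokinase activity via plasminogen activation per viability signal from cell pellet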
T3 sequence (P10520 whole entry): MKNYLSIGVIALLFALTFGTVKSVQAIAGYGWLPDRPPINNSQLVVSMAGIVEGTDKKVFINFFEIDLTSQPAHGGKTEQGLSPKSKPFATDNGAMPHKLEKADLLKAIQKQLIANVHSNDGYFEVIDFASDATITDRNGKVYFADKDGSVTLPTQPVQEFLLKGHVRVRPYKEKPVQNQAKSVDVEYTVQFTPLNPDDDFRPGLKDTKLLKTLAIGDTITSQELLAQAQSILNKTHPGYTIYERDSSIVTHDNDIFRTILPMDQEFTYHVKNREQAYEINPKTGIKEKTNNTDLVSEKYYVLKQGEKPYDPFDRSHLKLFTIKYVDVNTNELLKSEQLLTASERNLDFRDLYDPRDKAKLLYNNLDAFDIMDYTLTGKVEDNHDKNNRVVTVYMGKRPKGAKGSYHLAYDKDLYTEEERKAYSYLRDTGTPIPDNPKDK

Streptococcus = assay: Group A Streptococcus viability loss, dose response, counter-screen for streptokinase expression inhibitor project, luminescence, BacTiterGlo (AID 1915); type: functional, organism-based;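 also: potency for reduction of bacterial viability or growth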
[9] = biological target: T4, G-protein coupled receptor 35 (Homo sapiens, UniProt Q9HC97); assay: SAR analysis of Antagonists of the GPR35 Receptor using an Image-Based Assay - Set 6. [Related pubchem assays (depositor defined):AID2013, AID2026]; type: functional
T4 sequence (Q9HC97 whole entry): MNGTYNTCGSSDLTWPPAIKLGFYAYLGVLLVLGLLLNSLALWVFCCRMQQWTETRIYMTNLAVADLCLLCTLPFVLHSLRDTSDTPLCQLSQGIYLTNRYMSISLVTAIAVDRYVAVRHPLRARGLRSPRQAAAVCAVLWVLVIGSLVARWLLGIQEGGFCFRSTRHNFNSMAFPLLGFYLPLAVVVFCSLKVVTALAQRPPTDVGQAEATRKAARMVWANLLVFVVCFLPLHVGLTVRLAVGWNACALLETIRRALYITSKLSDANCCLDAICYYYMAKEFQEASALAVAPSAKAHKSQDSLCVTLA

Cannabinoid receptor 2 [10] = biological target: T5, Cannabinoid receptor 2 (Homo sapiens, UniProt P34972); assay: SAR analysis of agonists of the Cannabinoid Receptor 2 using an Image-Based Assay - Set 3. [Related pubchem assays (depositor defined):AID2013, AID2026]; type: functional
T5 sequence (P34972 whole entry): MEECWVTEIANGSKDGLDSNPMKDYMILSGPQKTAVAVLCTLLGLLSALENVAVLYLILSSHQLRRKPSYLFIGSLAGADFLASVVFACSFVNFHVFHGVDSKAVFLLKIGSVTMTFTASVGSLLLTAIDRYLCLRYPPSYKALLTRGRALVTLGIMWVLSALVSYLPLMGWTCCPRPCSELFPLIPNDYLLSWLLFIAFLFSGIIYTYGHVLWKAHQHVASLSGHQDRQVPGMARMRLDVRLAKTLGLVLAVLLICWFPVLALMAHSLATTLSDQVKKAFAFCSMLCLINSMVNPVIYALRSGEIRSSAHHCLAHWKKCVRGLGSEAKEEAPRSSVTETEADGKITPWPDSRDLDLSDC

[11] = biological target: T4, G-protein coupled receptor 35; assay: SAR analysis of Agonists of the GPR35 Receptor using an Image-Based Assay - Set 4. [Related pubchem assays (depositor defined):AID2013, AID2026]; type: functional
Cannabinoid receptor 1 [12] = biological target: T6, Cannabinoid receptor 1 (Homo sapiens, UniProt P21554); assay: SAR analysis of antagonists of the Cannabinoid Receptor 1 using an Image-Based Assay - Set 4. [Related pubchem assays (depositor defined):AID2013, AID2026]; type: functional
T6 sequence (P21554 whole entry): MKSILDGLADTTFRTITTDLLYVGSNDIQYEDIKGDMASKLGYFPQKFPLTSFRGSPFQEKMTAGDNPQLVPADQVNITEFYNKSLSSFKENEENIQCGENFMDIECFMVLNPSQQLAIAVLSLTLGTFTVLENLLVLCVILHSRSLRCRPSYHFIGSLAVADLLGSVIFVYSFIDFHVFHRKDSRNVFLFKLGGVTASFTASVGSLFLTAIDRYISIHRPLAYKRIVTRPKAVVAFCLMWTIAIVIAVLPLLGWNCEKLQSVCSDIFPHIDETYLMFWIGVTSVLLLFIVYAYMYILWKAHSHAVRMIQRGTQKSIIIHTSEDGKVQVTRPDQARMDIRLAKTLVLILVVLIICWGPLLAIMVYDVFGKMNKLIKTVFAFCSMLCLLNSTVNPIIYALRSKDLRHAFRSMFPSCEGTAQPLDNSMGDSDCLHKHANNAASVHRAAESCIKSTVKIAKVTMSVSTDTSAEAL

[13] = system: Streptococcus sp. 'group A'; assay: growth inhibition of control SK(-) GAS strain, dose response, counter-screen for streptokinase expression inhibitor project, luminescence, kanamycin, BacTiterGlo, confirmation (AID 1900); type: functional, organism-based
Cannabinoid receptor 2 [14] = biological target: T5, Cannabinoid receptor 2; assay: SAR analysis of antagonists of the Cannabinoid Receptor 2 using an Image-Based Assay - Set 3. [Related pubchem assays (depositor defined):AID2013, AID2026]; type: functional
Cannabinoid receptor 1 [15] = biological target: T6, Cannabinoid receptor 1; assay: SAR analysis of agonists of the Cannabinoid Receptor 1 using an Image-Based Assay - Set 4. [Related pubchem assays (depositor defined):AID2013, AID2026]; type: functional
INS1 = assay: beta cell apoptosis inhibitors, cytokine rescue, dose response, luminescence, retest (AID 449756); type: functional, cell-based; conditions: Rattus norvegicus;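 also: cell death triggered by IL-1 beta plus TNF-alpha plus IFN-gamma mixture; protective hits raise ATP signal compared with cytokine alone wells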
Paired box protein Pax-8 = Paired box protein Pax-8 (Homo sapiens, UniProt Q06710); assay: inhibitors of PAX8-driven TPO luciferase reporter, dose response, RMG-I cells, cherry-pick (AID 687027); type: functional, cell-based;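 also: luciferase reporter driven by Pax8 target thyroperoxidase promoter measured by SteadyGlo luminescence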
Sequence of Paired box protein Pax-8 (Q06710 whole entry): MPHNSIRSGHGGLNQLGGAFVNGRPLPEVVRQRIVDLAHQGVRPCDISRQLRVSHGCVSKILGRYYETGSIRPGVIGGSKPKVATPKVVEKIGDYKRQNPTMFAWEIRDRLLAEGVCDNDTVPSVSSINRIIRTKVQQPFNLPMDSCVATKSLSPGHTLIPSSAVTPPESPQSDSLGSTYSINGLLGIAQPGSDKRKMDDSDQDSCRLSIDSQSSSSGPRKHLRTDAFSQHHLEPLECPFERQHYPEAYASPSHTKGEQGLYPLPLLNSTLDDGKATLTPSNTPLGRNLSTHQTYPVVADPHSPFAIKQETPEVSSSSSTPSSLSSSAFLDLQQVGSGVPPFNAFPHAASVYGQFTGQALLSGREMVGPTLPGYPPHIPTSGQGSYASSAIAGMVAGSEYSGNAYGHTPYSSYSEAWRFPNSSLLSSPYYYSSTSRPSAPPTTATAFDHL

[16] = inhibitors of firefly luciferase expression or activity, dose response, H4 neuroglioma cells, luminescence (AID 1990); type: functional, cell-based
[17] = microbe, parasite or virus in culture; type: functional; conditions: Mycobacterium tuberculosis
[18] = Luminescence Cell-Based Dose Response HTS to Identify Inhibitors of 5'UTR Stem-Loop Driven Prion Protein mRNA Translation in H4 Neuroglioblastoma Cells. [Related pubchem assays: 1827 (Project Summary), 1813 (Primary HTS)]; type: functional
[19] = biological target: T7, DNA repair protein RAD52 homolog (Homo sapiens, UniProt P43351); type: functional, biochemical
T7 sequence (P43351 whole entry): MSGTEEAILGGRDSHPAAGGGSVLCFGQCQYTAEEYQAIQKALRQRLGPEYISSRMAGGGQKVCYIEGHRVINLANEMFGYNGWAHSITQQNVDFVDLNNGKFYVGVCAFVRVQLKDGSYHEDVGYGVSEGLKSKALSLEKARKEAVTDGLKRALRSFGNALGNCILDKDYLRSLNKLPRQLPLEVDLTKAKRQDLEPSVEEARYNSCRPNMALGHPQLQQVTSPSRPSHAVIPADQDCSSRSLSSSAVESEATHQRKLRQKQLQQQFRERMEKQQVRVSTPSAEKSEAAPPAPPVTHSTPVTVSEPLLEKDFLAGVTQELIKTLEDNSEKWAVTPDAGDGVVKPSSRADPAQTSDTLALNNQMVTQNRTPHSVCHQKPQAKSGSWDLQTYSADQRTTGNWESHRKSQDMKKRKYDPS

[20] = inhibitors of SNCA 5'UTR-driven reporter translation, confirmation, H4 neuroglioma cells, luminescence (AID 1988); type: functional, cell-based

## COc1cccc(-c2nnc(NC(=O)c3ccc4ncsc4c3)o2)c1
[1]
  CC50: 13 µM (active)
[2]
  CC50: > 20 µM (active)
cells
  IC50: 11.7 µM (active)
[3]
  CC50: 23.5 µM (active)
[4]
  EC50: 1.9 µM (active)
[5]
  EC50: > 150 µM (inconclusive)

## Cc1ccc(-c2cc(C(=O)Nc3ccc(S(=O)(=O)Nc4cc(C)on4)cc3)c3ccccc3n2)c(C)c1
[6]
  IC50: > 32 µM (inactive)
[7]
  IC50: 4.38 µM (active)
[8]
  IC50: 15.4 µM (active)
Coagulation factor XII
  IC50: > 50 µM (inactive)
Streptokinase A
  EC50: 9.4 µM (active)
Streptococcus
  EC50: 25.2 µM (active)
[9]
  IC50: > 32 µM (inactive)
Cannabinoid receptor 2 [10]
  EC50: > 32 µM (inactive)
[11]
  EC50: > 32 µM (inactive)
Cannabinoid receptor 1 [12]
  IC50: 9.14 µM (active)
[13]
  EC50: 12.1 µM (active)
Cannabinoid receptor 2 [14]
  IC50: > 32 µM (inactive)
Cannabinoid receptor 1 [15]
  EC50: > 32 µM (inactive)

## Cc1cc(C)n(-c2nc(NCCN(C)C)c3c4c(sc3n2)CCCC4)n1
INS1
  AC50: 8.03 µM (active)
[1]
  CC50: 5.33 µM (active)
[2]
  CC50: 9.27 µM (active)
cells
  IC50: 13.8 µM (active)
Paired box protein Pax-8
  AC50: 22.9 µM (active)
[16]
  EC50: 6.98 µM (active)
[17]
  CC50: 10.3 µM (active)
[18]
  EC50: 8.38 µM (active)
[3]
  CC50: 12.7 µM (active)
[19]
  AC50: 7 µM (active)
[20]
  EC50: 8.07 µM (active)
[4]
  EC50: 11.3 µM (active)
[5]
  EC50: 8.65 µM (inconclusive)

## O=C(COC(=O)CCc1c[nH]c2ccccc12)Nc1ccc([N+](=O)[O-])cc1
[2]
  CC50: > 20 µM (active)
cells
  IC50: 9.62 µM (active)

— ChEMBL document CHEMBL1201862, “PubChem BioAssay data set” (2004)
